According to patent publication US6767549B2, “Ionic polymers as anti-infective agents” (Genzyme Corporation, priority 1996, dated 2004):

Test system: C. parvum
Assay: In vitro activity against C. parvum infectivity in MDBK cell monolayers (indirect immunofluorescence assay)
Type: cell-based
Details: Cryptosporidium parvum, 2 mg/mL, positive control drug, 48 hours
Description: Confluent MDBK cell monolayers were grown on 16 well slides, and infected with 5×10^5 of C. parvum oocysts per well. Various dilutions of the test reagents in dimethylsulfoxide (DMSO) were added to the monolayers and cultures were incubated at 37° C.(8% CO2) for 48 hours. The level of C. parvum infections was determined and analysed by an indirect immunofluorescence (IF) assay at 48 hours. Anti-C. parvum sporozoite rabbit serum (1:1000) was used as the primary antibody, and fluorscein-conjugated anti rabbit goat serum (1:100) was used as the secondary antibody. Each dilution was tested in quadruple, and each assay was performed at least two times. The monolayers were methanol fixed and, after IF labelling, the number of parasites observed in 10 high power fields (HPF) per well in each of the four wells per dilution was counted, statistically analysed and compared with infected wells which contained DMSO only. Paromomycin was used as the positive control drug.

**Q.** For `NC[C@@H]1O[C@H](O[C@H]2[C@@H](O)[C@H](O[C@@H]3[C@@H](O)[C@H](N)C[C@H](N)[C@H]3O[C@H]3O[C@H](CO)[C@@H](O)[C@H](O)[C@H]3N)O[C@@H]2CO)[C@H](N)[C@@H](O)[C@@H]1O` [paromomycin], which inhibition at 2000 µg/mL is on record?
**A.** Its inhibition at 2000 µg/mL is 79.4%.
